From patent US20240124467A1, “FUSED PYRIMIDINE COMPOUNDS AS INHIBITORS OF MENIN-MLL INTERACTION” (Biomea Fusion, Inc., priority 2020, published 2024)
Where two headings read alike, the source gives them in different places.

Assays:
Type in all cases: cell-based
K-562 = assay: Cell proliferation inhibition (CellTiter-Glo), K-562 cells; details: Homo sapiens, K-562 (BCR-ABL), Table 3
How it was run: (§1)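 Leukemia lines in RPMI-1640/10% FBS at 37° C. were exposed in duplicate to seven compound concentrations (5.00×10^−6 to 6.86×10^−9 M), with 0.2% DMSO as 100% proliferation. At day 4 cells were diluted 1:4 in fresh medium containing compound. Viability was read by CellTiter-Glo luminescence at day 4 and day 7.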

MV4-11 = assay: Cell proliferation inhibition (CellTiter-Glo), MV4-11 cells; details: Homo sapiens, MV4-11 (MLL-AF4), Table 3
How it was run: as §1

OCI-AML3 = assay: Cell proliferation inhibition (CellTiter-Glo), OCI-AML3 cells; details: Homo sapiens
Description: (§2) The present example evaluates the ability of compounds described herein, inhibitors of Menin/MLL interaction, to inhibit cell proliferation. The proliferation inhibitory effect was investigated in human MLL-leukemia cells selected on the bases of MLL fusion proteins and listed in the table below.
(§3) ATP is present in all metabolically active cells and is considered as a marker for cell viability and proliferation. The metabolic cell activity was determined using the CellTiter-Glo kit from Promega, an ATP monitoring system based on the production of luminescence by the reaction of ATP with added UltraGlo® recombinant luciferase (Kawano et al., 2016, PLOS One, 8:11(7):e0158888), according to the supplier's experimental recommendations. The assay is based on a 96 well plate format. All experiments were carried out in duplicate in one test occasion.
(§4) Test items were dissolved at 20 mM in DMSO with purity ≥99.9% (Sigma catalog no. D8418) and stored at −20° C. Cells were maintained in RPMI-1640 medium (Invitrogen catalog no. 618700) supplemented with 10% of Heat Inactivated FBS (Invitrogen catalog no. 10500) and 1% Pen-Strep (Invitrogen catalog no. 15140) and cultured at 37° C. in a humidified incubator with 5% CO2. Cell lines were grown in suspension and the cell density was maintained in a range of 5×10^4-1×10^6 viable cells/ml where possible. Cells were pelleted at 130 g×5 min.
(§5) Serial dilutions of compounds 1 to 3 in DMSO 100% were prepared starting from a 2.5 mM solutions (prepared by diluting 1:8 the 20 mM stock solution) to generate a 7 point concentration response curve (CRC). Seven concentrations of test compounds (e.g., 5.00×10^−6-1.67×10^−6-5.56×10^−7-1.85×10^−7-6.17×10^−8-2.06×10^−8-6.86×10^−9 M) were assessed in duplicate in an individual test occasion in parallel in the selected cell lines. KO-539 was used as a reference compound and tested in duplicate at seven similar concentrations. 100% of proliferation was represented by the untreated cells (0.2% DMSO).
(§6) Cell proliferation inhibition was monitored at both the following end points: Day 4 (T4) and Day 7 (T7). For the appropriate cell density during the exponential cell growth and re-supply with fresh compound solution at T4, cells were diluted (1:4) with fresh medium containing the compound concentration (1×).
(§7) For each plate to test, one 0.4 μL copy plate and four 0.3 μL copy plates were stamped into 96-well plates not treated for cell adhesion (Sarstedt—cat. no. 82.1581.001) by acoustic liquid handling (Echo) at a concentration which was 500 fold the final assay concentration. Stamped plates were stored at −20° C.
(§8) On Day 0, the day of the experiment cell line suspensions were counted by Cell Viability Analyser, Vi-CELL (Beckman Coulter AY15292), and diluted with fresh medium to obtain the following cell densities: K-562 500 c/ml, MOLM-13 1,000 c/ml, MV4-11 10,000 c/ml, OCI-AML-3 500 c/ml, and U-937 500-1,000 c/ml. 200 μL/well and 150 μL/well of cell suspension were added into the 0.4 μL/well and 0.3 μL/well compound plates, respectively. Cell plate containing 200 μL/well suspension were incubated at 37° C. in a humidified incubator with 5% CO2. From each well of the 150 μL/well cell assay plate, 100 μL were harvested and transferred into a 96-well Optiplate (Perkin Elmer, cat. no. 6005290). Cell viability was measured as described below.
(§9) On Day 4, 150p/well of fresh medium was added into a new 0.3 μL/well copy compound plates. From each well of the 200 μL/well cell assay plate, 100 μL was sampled for the cell viability measurement as described below. 50p was harvested and added to the 150p/well compound plate prepared as described in the first point to dilute 1:4 the cell suspension. The cell assay plate diluted and containing 200 μL/well suspension was incubated at 37° C. in a humidified incubator with 5% CO2.
(§10) On Day 4, 150p/well of fresh medium was added into a new 0.3 μL/well copy compound plates. […]

MOLM-13 = assay: Cell proliferation inhibition (CellTiter-Glo), MOLM-13 cells; details: Homo sapiens, MOLM-13 (MLL-AF9), Table 3
How it was run: as §1

U-937 = assay: Cell proliferation inhibition (CellTiter-Glo), U-937 cells; details: Homo sapiens, U-937 (MLL-wt), Table 3
Description: as §2, §3, §4, §5, §6, §7, §8, §9, §10

[1] = K562, 96 h, 4 d, read-out: K-562 IC50 μM 4 d
[2] = K562, 168 h, 7 d, read-out: K-562 IC50 μM 7 d
[3] = 96 h, 4 d, read-out: MV4-11 IC50 μM 4 d
[4] = 168 h, 7 d, read-out: MV4-11 IC50 μM 7 d
[5] = OCI-AML-3, 96 h, 4 d, Table 3, read-out: OCI-AML3 IC50 μM 4 d
[6] = OCI-AML-3, 168 h, 7 d, Table 3, read-out: OCI-AML3 IC50 μM 7 d
[7] = 96 h, 4 d, read-out: MOLM13 μM 4 d
[8] = 168 h, 7 d, read-out: MOLM13 μM 7 d
[9] = 96 h, 4 d, read-out: U-937 IC50 μM 4 d
[10] = 168 h, 7 d, read-out: U-937 IC50 μM 7 d

Structure (SMILES): O=C(/C=C/CN1CC(F)C1)Nc1ccc(CC(=O)Nc2ccc(-c3cc4c(N5CCOCC5)ncnc4[nH]3)cc2)cc1 [Compound B0700-312, (E)-4-(3-fluoroazetidin-1-yl)-N-(4-(2-((4-(4-morpholino-7H-pyrrolo[2,3-d]pyrimidin-6-yl)phenyl)amino)-2-oxoethyl)phenyl)but-2-enamide]
- IC50 (K-562; [1]): > 5 µM
- IC50 (K-562; [2]): > 5 µM
- IC50 (MV4-11; [3]): 1.62 µM
- IC50 (MV4-11; [4]): 1 µM
- IC50 (OCI-AML3; [5]): > 5 µM
- IC50 (OCI-AML3; [6]): 1.95 µM
- IC50 (MOLM-13; [7]): 2340 nM
- IC50 (MOLM-13; [8]): 537 nM
- IC50 (U-937; [9]): > 5 µM
- IC50 (U-937; [10]): > 5 µM

Structure (SMILES): C=CC(=O)N1CC(N2CCC[C@H](NC(=O)Nc3ccc(-c4cc5c(N6CCOCC6)ncnc5[nH]4)cc3)C2)C1 [Compound B0700-332, (S)-1-(1-(1-acryloylazetidin-3-yl)piperidin-3-yl)-3-(4-(4-morpholino-7H-pyrrolo[2,3-d]pyrimidin-6-yl)phenyl)urea]
- IC50 (K-562; [1]): 1.86 µM
- IC50 (K-562; [2]): 1.66 µM
- IC50 (MV4-11; [3]): 0.38 µM
- IC50 (MV4-11; [4]): 0.151 µM
- IC50 (OCI-AML3; [5]): 0.955 µM
- IC50 (OCI-AML3; [6]): 0.24 µM
- IC50 (MOLM-13; [7]): 324 nM
- IC50 (MOLM-13; [8]): 316 nM
- IC50 (U-937; [9]): 1.2 µM
- IC50 (U-937; [10]): 0.457 µM

Structure (SMILES): C=CC(=O)N(C)[C@@H]1CCCN(Cc2ccnc(C(=O)Nc3ccc(-c4cc5c(N6CCOCC6)ncnc5[nH]4)cc3)c2)C1 [Compound B0700-301, (R)-4-((3-(N-methylacrylamido)piperidin-1-yl)methyl)-N-(4-(4-morpholino-7H-pyrrolo[2,3-d]pyrimidin-6-yl)phenyl)picolinamide]
- IC50 (K-562; [1]): 0.263 µM
- IC50 (K-562; [2]): 0.191 µM
- IC50 (MV4-11; [3]): 0.085 µM
- IC50 (MV4-11; [4]): 0.069 µM
- IC50 (OCI-AML3; [5]): 0.066 µM
- IC50 (OCI-AML3; [6]): 0.028 µM
- IC50 (MOLM-13; [7]): 56 nM
- IC50 (MOLM-13; [8]): 44 nM
- IC50 (U-937; [9]): 0.105 µM
- IC50 (U-937; [10]): 0.026 µM

Structure (SMILES): C=CC(=O)Nc1ccc(CC(=O)Nc2ccc(-c3cc4c(C)ncnc4[nH]3)cc2)cc1 [Compound B0700-313, N-(4-(2-((4-(4-methyl-7H-pyrrolo[2,3-d]pyrimidin-6-yl)phenyl)amino)-2-oxoethyl)phenyl)acrylamide]
- IC50 (K-562; [1]): > 5 µM
- IC50 (K-562; [2]): 0.288 µM
- IC50 (MV4-11; [3]): > 5 µM
- IC50 (MV4-11; [4]): > 5 µM
- IC50 (OCI-AML3; [5]): > 5 µM
- IC50 (OCI-AML3; [6]): 0.407 µM
- IC50 (MOLM-13; [7]): > 5000 nM
- IC50 (MOLM-13; [8]): 3310 nM
- IC50 (U-937; [9]): > 5 µM
- IC50 (U-937; [10]): 1.26 µM

Structure (SMILES): C=CC(=O)Nc1ccc(CC(=O)Nc2ccc(-c3cc4c(N5CCOCC5)ncnc4[nH]3)cc2)nc1 [Compound B0700-314, N-(6-(2-((4-(4-morpholino-7H-pyrrolo[2,3-d]pyrimidin-6-yl)phenyl)amino)-2-oxoethyl)pyridin-3-yl)acrylamide]
- IC50 (K-562; [1]): 0.55 µM
- IC50 (K-562; [2]): 0.468 µM
- IC50 (MV4-11; [3]): 0.145 µM
- IC50 (MV4-11; [4]): 0.129 µM
- IC50 (OCI-AML3; [5]): 0.145 µM
- IC50 (OCI-AML3; [6]): 0.095 µM
- IC50 (MOLM-13; [7]): 191 nM
- IC50 (MOLM-13; [8]): 178 nM
- IC50 (U-937; [9]): 0.288 µM
- IC50 (U-937; [10]): 0.158 µM
